For this assay, the system named is MCH receptors. Kind of assay: MCH receptor activity class (method not given). Conditions: class by percent of control at 10^-7 M or IC50.

With `CN(C)c1cc(N[C@H]2CC[C@@H](NC(=O)Nc3ccccc3-c3ccccc3)CC2)nc2ccccc12` [compound 2124], the class is listed as 3 (Class 3 The value of percent of control at 10^−7 M was more than 60% or the value of IC50 was more than 200 nM.).
The same measure for `CCCCNC(=O)N[C@H]1CC[C@@H](Nc2cc(N(C)C)c3ccccc3n2)CC1` [compound 2125]: 3 (Class 3 The value of percent of control at 10^−7 M was more than 60% or the value of IC50 was more than 200 nM.); for `Cc1cccc(NC(=O)N[C@H]2CC[C@@H](Nc3cc(N(C)C)c4ccccc4n3)CC2)c1C` [compound 2126]: 3 (Class 3 The value of percent of control at 10^−7 M was more than 60% or the value of IC50 was more than 200 nM.); for `CCOC(=O)c1cccc(NC(=O)N[C@H]2CC[C@@H](Nc3cc(N(C)C)c4ccccc4n3)CC2)c1` [compound 2127]: 3 (Class 3 The value of percent of control at 10^−7 M was more than 60% or the value of IC50 was more than 200 nM.).
The figure for `C=C(C)c1cccc(C(C)(C)NC(=O)N[C@H]2CC[C@@H](Nc3cc(N(C)C)c4ccccc4n3)CC2)c1` [compound 2128] is 3 (Class 3 The value of percent of control at 10^−7 M was more than 60% or the value of IC50 was more than 200 nM.); for `CN(C)c1cc(N[C@H]2CC[C@@H](NC(=O)Nc3cccc4ccccc34)CC2)nc2ccccc12` [compound 2130, N-(cis-4-{[4-(dimethylamino)quinolin-2-yl]amino}cyclohexyl)-N′-1-naphthylurea] it is 1 (Class 1: The value of percent of control at 10^−7 M was less than 40% or the value of IC50 was less than 50 nM.); for `CN(C)c1cc(N[C@H]2CC[C@@H](NC(=O)NC3C[C@H]3c3ccccc3)CC2)nc2ccccc12` (stereo partly shown) [compound 2131] it is 3 (Class 3 The value of percent of control at 10^−7 M was more than 60% or the value of IC50 was more than 200 nM.).
Regarding `CN(C)c1cc(N[C@H]2CC[C@@H](NC(=O)Nc3ccc(Oc4ccccc4)cc3)CC2)nc2ccccc12` [compound 2132], the class is recorded as 3 (Class 3 The value of percent of control at 10^−7 M was more than 60% or the value of IC50 was more than 200 nM.).
The figure for `CCCCCNC(=O)N[C@H]1CC[C@@H](Nc2cc(N(C)C)c3ccccc3n2)CC1` [compound 2133] is 3 (Class 3 The value of percent of control at 10^−7 M was more than 60% or the value of IC50 was more than 200 nM.); for `CC(NC(=O)NC1CCC(Nc2cc(N(C)C)c3ccccc3n2)CC1)c1ccccc1` (stereo not shown) [compound 2137] it is 3 (Class 3 The value of percent of control at 10^−7 M was more than 60% or the value of IC50 was more than 200 nM.); for `CN(C)c1cc(N[C@H]2CC[C@@H](NC(=O)Nc3c(Cl)c(Cl)cc(Cl)c3Cl)CC2)nc2ccccc12` [compound 2138] it is 3 (Class 3 The value of percent of control at 10^−7 M was more than 60% or the value of IC50 was more than 200 nM.).
Turning to `CN(C)c1cc(N[C@H]2CC[C@@H](NC(=O)Nc3ccc(Br)cc3Br)CC2)nc2ccccc12` [compound 2139], the class was 3 (Class 3 The value of percent of control at 10^−7 M was more than 60% or the value of IC50 was more than 200 nM.).
The same measure for `CN(C)c1cc(N[C@H]2CC[C@@H](NC(=O)NCc3ccc(Cl)cc3Cl)CC2)nc2ccccc12` [compound 2140]: 3 (Class 3 The value of percent of control at 10^−7 M was more than 60% or the value of IC50 was more than 200 nM.); for `COc1ccc(NC(=O)N[C@H]2CC[C@@H](Nc3cc(N(C)C)c4ccccc4n3)CC2)c(OC)c1` [compound 2141]: 3 (Class 3 The value of percent of control at 10^−7 M was more than 60% or the value of IC50 was more than 200 nM.); for `CCOc1ccccc1NC(=O)N[C@H]1CC[C@@H](Nc2cc(N(C)C)c3ccccc3n2)CC1` [compound 2142]: 3 (Class 3 The value of percent of control at 10^−7 M was more than 60% or the value of IC50 was more than 200 nM.).
As for `CN(C)c1cc(N[C@H]2CC[C@@H](NC(=O)NCc3ccccc3F)CC2)nc2ccccc12` [compound 2143], the class is recorded as 3 (Class 3 The value of percent of control at 10^−7 M was more than 60% or the value of IC50 was more than 200 nM.).
The figure for `Cc1cc([N+](=O)[O-])ccc1NC(=O)N[C@H]1CC[C@@H](Nc2cc(N(C)C)c3ccccc3n2)CC1` [compound 2144] is 3 (Class 3 The value of percent of control at 10^−7 M was more than 60% or the value of IC50 was more than 200 nM.); for `Cc1ccc([N+](=O)[O-])cc1NC(=O)N[C@H]1CC[C@@H](Nc2cc(N(C)C)c3ccccc3n2)CC1` [compound 2145] it is 3 (Class 3 The value of percent of control at 10^−7 M was more than 60% or the value of IC50 was more than 200 nM.).
The same measure for `Cc1ccccc1CNC(=O)N[C@H]1CC[C@@H](Nc2cc(N(C)C)c3ccccc3n2)CC1` [compound 2146]: 3 (Class 3 The value of percent of control at 10^−7 M was more than 60% or the value of IC50 was more than 200 nM.); for `CN(C)c1cc(N[C@H]2CC[C@@H](NC(=O)Nc3ccccc3[N+](=O)[O-])CC2)nc2ccccc12` [compound 2147]: 3 (Class 3 The value of percent of control at 10^−7 M was more than 60% or the value of IC50 was more than 200 nM.); for `CN(C)c1cc(N[C@H]2CC[C@@H](NC(=O)Nc3ccc4c(c3)OCO4)CC2)nc2ccccc12` [compound 2148]: 3 (Class 3 The value of percent of control at 10^−7 M was more than 60% or the value of IC50 was more than 200 nM.).
In the case of `COc1cc(NC(=O)N[C@H]2CC[C@@H](Nc3cc(N(C)C)c4ccccc4n3)CC2)cc(OC)c1OC` [compound 2149, N-(cis-4-{[4-(dimethylamino)quinolin-2-yl]amino}cyclohexyl)-N′-(3,4,5-trimethoxyphenyl)urea], the class was 1 (Class 1: The value of percent of control at 10^−7 M was less than 40% or the value of IC50 was less than 50 nM.).
The figure for `COc1ccc(NC(=O)N[C@H]2CC[C@@H](Nc3cc(N(C)C)c4ccccc4n3)CC2)cc1OC` [compound 2150] is 3 (Class 3 The value of percent of control at 10^−7 M was more than 60% or the value of IC50 was more than 200 nM.); for `COc1ccc(NC(=O)N[C@H]2CC[C@@H](Nc3cc(N(C)C)c4ccccc4n3)CC2)cc1Cl` [compound 2151] it is 3 (Class 3 The value of percent of control at 10^−7 M was more than 60% or the value of IC50 was more than 200 nM.); for `CN(C)c1cc(N[C@H]2CC[C@@H](NC(=O)Nc3ccc(Br)cc3C(F)(F)F)CC2)nc2ccccc12` [compound 2152] it is 3 (Class 3 The value of percent of control at 10^−7 M was more than 60% or the value of IC50 was more than 200 nM.).
In the case of `CN(C)c1cc(N[C@H]2CC[C@@H](NC(=O)NCc3ccc(Br)cc3)CC2)nc2ccccc12` [compound 2153], the class is given as 3 (Class 3 The value of percent of control at 10^−7 M was more than 60% or the value of IC50 was more than 200 nM.).
The same measure for `Cc1cc(Cl)ccc1NC(=O)N[C@H]1CC[C@@H](Nc2cc(N(C)C)c3ccccc3n2)CC1` [compound 2154]: 3 (Class 3 The value of percent of control at 10^−7 M was more than 60% or the value of IC50 was more than 200 nM.).
The same measure for `CN(C)c1cc(N[C@H]2CC[C@@H](NC(=O)NCc3ccc(F)cc3)CC2)nc2ccccc12` [compound 2155]: 3 (Class 3 The value of percent of control at 10^−7 M was more than 60% or the value of IC50 was more than 200 nM.).

(Values after patent publication US20050197350A1, “Novel quinoline, tetrahydroquinazoline, and pyrimidine derivatives and methods of treatment related to the use thereof” (TAISHO PHARMACEUTICAL CO., LTD., priority 2003, published 2005).)
